± gives the standard deviation of the averaged measurements.
Legend:
Test in all cases: CTG-3D luminescence at 96 h relative to day-0 seeding control (ratio to day 0); higher = more growth / less cytotoxicity; PDxO 3D drug screen, 96 h, CTG-3D normalised to day-0 seeding control.
HCI-015 = test system: HCI-015 (organoid from a triple-negative breast cancer xenograft)
HCI-002 = test system: HCI-002 (organoid from a triple-negative breast cancer xenograft)
HCI-010 = test system: HCI-010 (organoid from a breast cancer xenograft)
HCI-023 = test system: HCI-023 (organoid from a triple-negative breast cancer xenograft)
HCI-011.E2 = test system: HCI-011.E2 (organoid from an ER-positive breast cancer xenograft)

NC(=O)c1cccc2cn(-c3ccc([C@@H]4CCCNC4)cc3)nc12 [niraparib]
CTG-3D luminescence at 96 h
Details	12.5 pM	0.00025 µM	0.005 µM	0.1 µM	1 µM	10 µM	100 µM	625 fM
HCI-002, days in culture: 62	3.51	3	3.42	2.62	1.36	0.533	-0.0877	3.34
HCI-002, days in culture: 82	3.5	3.51	2.69	2.16	1.29	0.381	-0.026	2.77
HCI-002, days in culture: 91	2.87	2.3	1.8	1.74	1.11	0.377	-0.0114	2.66
HCI-002, days in culture: 191	3.37	2.98	3.35	2.51	1.99	0.811	-0.139	3.21
HCI-002, days in culture: 209	2.84	2.96	2.54	1.96	1.18	0.302	-0.0818	2.86
HCI-002, days in culture: 227	4.63	5.21	4.64	3.79	2.08	0.87	-0.0133	5.51
HCI-010, days in culture: 52	1.94	2.41	2.17	2.55	2.02	0.332	0.006	2.06
HCI-010, days in culture: 65	1.44	1.78	1.88	1.63	1.54	0.382	0.000688	1.62
HCI-010, days in culture: 103	3.06	3.18	3.13	3.19	2.67	0.397	0.00829	2.94
HCI-011.E2, days in culture: 74	1.93	2.01	1.98	1.97	1.88	2.89	0.00301	1.92
HCI-015, days in culture: 172	2.77	1.86	2.64	1.3	0.847	0.199	-0.107	2.29
HCI-015, days in culture: 191	2.28	1.35	1.72	1.06	1.12	0.29	-0.000426	1.59
HCI-015, days in culture: 218	2.06	1.35	1.71	1.25	0.615	-0.0786	-0.35	1.94
HCI-023, days in culture: 111	1.92	1.44	1.58	1.16	0.886	0.393	-0.00664	1.85
HCI-023, days in culture: 128	1.57 ± 0.42	1.57 ± 0.046	1.61 ± 0.28	1.42 ± 0.034	0.892 ± 0.062	0.695 ± 0.034	0.00157 ± 0.00012	1.67 ± 0.12

HCI-011.E2
Details	CTG-3D luminescence at 96 h
12.5 pM	1.33 ± 0.58
0.00025 µM	1.59 ± 0.46
0.005 µM	1.3 ± 0.5
0.1 µM	1.76 ± 0.67
1 µM	1.7 ± 0.66
10 µM	1.55 ± 0.56
100 µM	0.00155 ± 0.00027
625 fM	1.465 ± 0.0099

CN(Cc1cnc2nc(N)nc(N)c2n1)c1ccc(C(=O)N[C@@H](CCC(=O)O)C(=O)O)cc1 [methotrexate]
CTG-3D luminescence at 96 h
Details	12.5 pM	0.00025 µM	0.005 µM	0.1 µM	1 µM	10 µM	100 µM	625 fM
HCI-002, days in culture: 62	2.96	2.69	2.51	2.07	1.87	1.98	1.41	3
HCI-002, days in culture: 82	2.95	3.08	2.15	2.74	2.21	2.01	1.45	2.71
HCI-002, days in culture: 91	3.87	3.77	3.65	2.64	2.19	2.11	1.68	4.28
HCI-002, days in culture: 191	2.61	2.61	2.29	1.61	1.57	1.54	1.33	2.53
HCI-002, days in culture: 209	2.46	2.21	2.31	1.84	1.59	1.28	1.33	2.57
HCI-002, days in culture: 227	6.13	6.3	5.89	6.23	5.35	5.18	4.27	6.94
HCI-010, days in culture: 52	2.12	2.41	2.51	2.48	2.58	2.52	2.52	2.58
HCI-010, days in culture: 65	1.6	1.77	1.79	1.86	1.86	1.72	1.46	1.8
HCI-010, days in culture: 103	3.42	3.7	4.03	2.39	2.36	2.1	1.84	3.19
HCI-011.E2, days in culture: 74	1.97	2.4	1.99	2.27	2.49	3.6	2.24	2.17
HCI-015, days in culture: 172	2.51	2.28	2.36	1.31	1.55	1.13	1.06	2.55
HCI-015, days in culture: 191	1.94	1.41	1.62	1.1	1.23	0.977	0.939	1.36
HCI-015, days in culture: 218	1.75	1.57	1.63	1.69	1.48	1.63	1.21	1.79
HCI-023, days in culture: 111	1.59	1.42	1.18	1.07	0.83	0.957	0.655	1.51
HCI-023, days in culture: 128	1.68 ± 0.15	1.51 ± 0.073	1.5 ± 0.16	1.84 ± 0.094	1.37 ± 0.12	1.77 ± 0.14	1.22 ± 0.16	1.62 ± 0.16

HCI-011.E2
Details	CTG-3D luminescence at 96 h
12.5 pM	1.46 ± 0.36
0.00025 µM	1.77 ± 0.6
0.005 µM	1.44 ± 0.56
0.1 µM	1.83 ± 0.1
1 µM	1.62 ± 0.63
10 µM	2.08 ± 0.72
100 µM	2.21 ± 0.71
625 fM	1.59 ± 0.47

CC(C)n1nc(-c2ccc3oc(N)nc3c2)c2c(N)ncnc21 [sapanisertib]
CTG-3D luminescence at 96 h
Details	12.5 pM	0.00025 µM	0.005 µM	0.1 µM	1 µM	10 µM	100 µM	625 fM
HCI-002, days in culture: 62	2.83	2.68	2.7	0.903	0.579	0.418	0.0431	2.93
HCI-002, days in culture: 82	3.4	3.17	2.04	0.983	0.633	0.403	0.0264	2.93
HCI-002, days in culture: 91	4.16	3.41	2.81	1.44	0.846	0.697	0.0524	4.41
HCI-002, days in culture: 191	2.25	2.71	2.07	1.04	0.718	0.443	0.0974	2.61
HCI-002, days in culture: 209	2.41	2.26	2.27	0.676	0.446	0.209	0.0077	2.18
HCI-002, days in culture: 227	5.28	4.74	4.01	1.33	0.801	0.598	0.0372	5.6
HCI-010, days in culture: 52	2.19	2.6	1.89	0.958	0.693	0.249	0.011	2.4
HCI-010, days in culture: 65	1.61	1.71	1.34	0.701	0.447	0.0873	0.00591	1.71
HCI-010, days in culture: 103	3.65	3.1	3	1.48	1.26	0.555	-0.00132	3.02
HCI-011.E2, days in culture: 74	2.89	2.86	1.28	0.283	0.158	0.168	0.26	2.98
HCI-015, days in culture: 172	2.06	1.81	1.9	0.761	0.765	0.544	0.204	2.17
HCI-015, days in culture: 191	1.67	1.6	1.4	0.411	0.69	0.363	0.165	1.72
HCI-015, days in culture: 218	1.96	1.53	1.59	0.561	0.547	0.511	0.156	1.77
HCI-023, days in culture: 111	1.32	1.65	1.1	0.701	0.401	0.462	0.0354	1.44
HCI-023, days in culture: 128	1.42 ± 0.12	1.44 ± 0.54	0.963 ± 0.052	0.727 ± 0.098	0.428 ± 0.005	0.484 ± 0.068	0.0623 ± 0.015	1.75 ± 0.43

HCI-011.E2
Details	CTG-3D luminescence at 96 h
12.5 pM	1.81 ± 0.23
0.00025 µM	1.79 ± 0.046
0.005 µM	1.06 ± 0.06
0.1 µM	0.362 ± 0.027
1 µM	0.179 ± 0.0025
10 µM	0.212 ± 0.067
100 µM	0.311 ± 0.016
625 fM	1.74 ± 0.5

Reference: the supplement of paper PMC8882468
